From paper PMC6899459 (Chemmedchem, 2019) come the findings set out here.

The pEC50 is −log10 of the EC50, conventionally taken in molar units.

In the assay the target is ghrelin receptor (Homo sapiens, UniProt Q92847). Nature of the assay: IP-One assay. Type of assay: cell-based. The settings on record: for potency loss relative to ghrelin: IP-One assay, COS7 cells with ghrelin receptor; for pEC50 / E max [Δ%]: SEM; for E max [Δ%]: difference between constitutive activity and maximal effect, mean±SEM of >=2 independent experiments.
[1] abbreviates: normalized to ghrelin (5) efficacy (ghrelin analogues and multiple modified agonists).
Setting [2] is: normalized to KbFwLL-NH2 (15) (inverse agonists and 13).

pEC50: −log10 of the molar value. Square brackets hold non-standard residues; d marks the D form. Peptide text beside a SMILES is read from it. Trp(3S-Ph) = N[C@H](C(=O)O)[C@@H](c1ccccc1)c1c[nH]c2ccccc12; Trp(βR-Ph) = N[C@H](C(=O)O)[C@H](c1ccccc1)c1c[nH]c2ccccc12; d2Nal = N[C@H](Cc1ccc2ccccc2c1)C(=O)O; dBta = N[C@H](Cc1csc2ccccc12)C(=O)O; Inp = O=C(O)C1CCNCC1

Sequence of ghrelin receptor (Q92847 whole entry): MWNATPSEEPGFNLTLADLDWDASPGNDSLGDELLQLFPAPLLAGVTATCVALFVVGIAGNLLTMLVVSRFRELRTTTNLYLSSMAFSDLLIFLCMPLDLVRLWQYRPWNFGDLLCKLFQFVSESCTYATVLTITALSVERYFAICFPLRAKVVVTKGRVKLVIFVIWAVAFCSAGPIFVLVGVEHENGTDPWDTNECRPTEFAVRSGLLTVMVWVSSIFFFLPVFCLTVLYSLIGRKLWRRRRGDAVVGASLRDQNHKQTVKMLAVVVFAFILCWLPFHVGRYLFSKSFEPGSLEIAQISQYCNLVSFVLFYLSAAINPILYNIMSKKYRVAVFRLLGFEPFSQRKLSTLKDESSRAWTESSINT

`CCCCCCCC(=O)OC[C@H](NC(=O)[C@H](CO)NC(=O)CN)C(=O)N[C@H](C(=O)N[C@@H](CC(C)C)C(=O)N[C@@H](CO)C(=O)N1CCC[C@H]1C(=O)N[C@@H](CCC(=O)O)C(=O)N[C@@H](Cc1c[nH]cn1)C(=O)N[C@@H](CCC(N)=O)C(=O)N[C@@H](CCCNC(=N)N)C(=O)N[C@H](C(=O)N[C@@H](CCC(N)=O)C(=O)N[C@@H](CCC(N)=O)C(=O)N[C@@H](CCCNC(=N)N)C(=O)N[C@@H](CCCCN)C(=O)N[C@@H](CCC(=O)O)C(=O)N[C@@H](CO)C(=O)N[C@@H](CCCCN)C(=O)N[C@@H](CCCCN)C(=O)N1CCC[C@H]1C(=O)N1CCC[C@H]1C(=O)N[C@@H](C)C(=O)N[C@@H](CCCCN)C(=O)N[C@@H](CC(C)C)C(=O)N[C@@H](CCC(N)=O)C(=O)N1CCC[C@H]1C(=O)N[C@@H](CCCNC(=N)N)C(=O)O)C(C)C)[C@H](c1ccccc1)c1c[nH]c2ccccc12` [Peptide 6, Wrf^4‐ghrelin]: the “potency loss relative to ghrelin” value is reported as “about 12 fold” and the pEC50 is 7.49. The “E max [Δ%]” value under setting [1] is 98±2 Δ%.

Consider `CCCCCCCC(=O)OC[C@H](NC(=O)[C@H](CO)NC(=O)CN)C(=O)N[C@H](C(=O)N[C@@H](CC(C)C)C(=O)N[C@@H](CO)C(=O)N1CCC[C@H]1C(=O)N[C@@H](CCC(=O)O)C(=O)N[C@@H](Cc1c[nH]cn1)C(=O)N[C@@H](CCC(N)=O)C(=O)N[C@@H](CCCNC(=N)N)C(=O)N[C@H](C(=O)N[C@@H](CCC(N)=O)C(=O)N[C@@H](CCC(N)=O)C(=O)N[C@@H](CCCNC(=N)N)C(=O)N[C@@H](CCCCN)C(=O)N[C@@H](CCC(=O)O)C(=O)N[C@@H](CO)C(=O)N[C@@H](CCCCN)C(=O)N[C@@H](CCCCN)C(=O)N1CCC[C@H]1C(=O)N1CCC[C@H]1C(=O)N[C@@H](C)C(=O)N[C@@H](CCCCN)C(=O)N[C@@H](CC(C)C)C(=O)N[C@@H](CCC(N)=O)C(=O)N1CCC[C@H]1C(=O)N[C@@H](CCCNC(=N)N)C(=O)O)C(C)C)[C@@H](c1ccccc1)c1c[nH]c2ccccc12` [Peptide 7, Wsf^4‐ghrelin], for which the “potency loss relative to ghrelin” value was “about 12 fold” and the pEC50 is 7.47. The “E max [Δ%]” value under setting [1] is listed as 96±2 Δ%.

In the case of `CC(C)C[C@H](NC(=O)[C@H](CC(C)C)NC(=O)[C@@H](Cc1c[nH]c2ccccc12)NC(=O)[C@H](Cc1ccccc1)NC(=O)[C@@H](Cc1c[nH]c2ccccc12)NC(=O)[C@@H](N)CCCCN)C(N)=O` [Peptide 8, KwFwLL‐NH2, reference compound], the pEC50 was 6.74. Besides, under setting [2], the “E max [Δ%]” value is reported as 66±3 Δ%.

For `CC(C)C[C@H](NC(=O)[C@H](CC(C)C)NC(=O)[C@@H](Cc1c[nH]c2ccccc12)NC(=O)[C@H](Cc1ccccc1)NC(=O)[C@@H](NC(=O)[C@@H](N)CCCCN)[C@H](c1ccccc1)c1c[nH]c2ccccc12)C(N)=O` [Peptide 9, K‐Wrf‐FwLL‐NH2], the “E max [Δ%]” value under setting [2] is on record as 72±2 Δ%.

In turn, `CC(C)C[C@H](NC(=O)[C@H](CC(C)C)NC(=O)[C@@H](Cc1c[nH]c2ccccc12)NC(=O)[C@@H](NC(=O)[C@@H](Cc1c[nH]c2ccccc12)NC(=O)[C@@H](N)CCCCN)[C@H](c1ccccc1)c1c[nH]c2ccccc12)C(N)=O` [Peptide 11, Kw‐Wrf‐wLL‐NH2] (H-K[dW][Trp(βR-Ph)][dW]LL-NH2; N-terminus assumed) gave a pEC50 of 6.83. Moreover, the “E max [Δ%]” value under setting [2] is on record as 55±4 Δ%.

The compound `CC(C)C[C@H](NC(=O)[C@H](CC(C)C)NC(=O)[C@@H](Cc1c[nH]c2ccccc12)NC(=O)[C@@H](NC(=O)[C@@H](Cc1c[nH]c2ccccc12)NC(=O)[C@@H](N)CCCCN)[C@@H](c1ccccc1)c1c[nH]c2ccccc12)C(N)=O` [Peptide 12, Kw‐Wsf‐wLL‐NH2] (H-K[dW][Trp(3S-Ph)][dW]LL-NH2; N-terminus assumed) had a pEC50 of 6.55. Besides, the “E max [Δ%]” value under setting [2] was 77±4 Δ%.

As to `CC(C)C[C@H](NC(=O)[C@H](CC(C)C)NC(=O)[C@@H](NC(=O)[C@H](Cc1ccccc1)NC(=O)[C@@H](Cc1c[nH]c2ccccc12)NC(=O)[C@@H](N)CCCCN)[C@H](c1ccccc1)c1c[nH]c2ccccc12)C(N)=O` [Peptide 13, KwF‐Wrf‐LL‐NH2], the pEC50 is 6.04. Also, under setting [2], the “E max [Δ%]” value was 39±3 Δ%.

For `CC(C)C[C@H](NC(=O)[C@H](CC(C)C)NC(=O)[C@@H](Cc1c[nH]c2ccccc12)NC(=O)[C@@H](NC(=O)[C@@H](Cc1csc2ccccc12)NC(=O)[C@@H](N)CCCCN)[C@H](c1ccccc1)c1c[nH]c2ccccc12)C(N)=O` [Peptide 16, Kb‐Wrf‐wLL‐NH2] (H-K[dBta][Trp(βR-Ph)][dW]LL-NH2; N-terminus assumed), the pEC50 was 6.26. For the same compound, the “E max [Δ%]” value under setting [2] is given as 56±3 Δ%.

`C[C@H](N)C(=O)N[C@H](Cc1c[nH]c2ccccc12)C(=O)N[C@@H](Cc1ccccc1)C(=O)N[C@H](Cc1ccc2ccccc2c1)C(=O)N1CCC(C(N)=O)CC1` [Peptide 18, AwFn‐Isn‐NH2, reference compound] (H-A[dW]F[d2Nal][Inp]-NH2; N-terminus assumed) showed a pEC50 of 7.78. Further, the “E max [Δ%]” value under setting [1] was 110±6 Δ%.

Compound `C[C@H](N)C(=O)N[C@H](Cc1c[nH]c2ccccc12)C(=O)N[C@@H](Cc1ccccc1)C(=O)N[C@H](C(=O)N1CCC(C(N)=O)CC1)[C@H](c1ccccc1)c1c[nH]c2ccccc12` [Peptide 20, AwF‐Wrf‐Isn‐NH2] (H-A[dW]F[Trp(βR-Ph)][Inp]-NH2; N-terminus assumed) showed a pEC50 of 7.56. In addition, the “E max [Δ%]” value under setting [1] was 105±3 Δ%.

With `C[C@H](N)C(=O)N[C@H](Cc1c[nH]c2ccccc12)C(=O)N[C@@H](Cc1ccccc1)C(=O)N[C@H](C(=O)N1CCC(C(N)=O)CC1)[C@@H](c1ccccc1)c1c[nH]c2ccccc12` [Peptide 21, AwF‐Wsf‐Isn‐NH2] (H-A[dW]F[Trp(3S-Ph)][Inp]-NH2; N-terminus assumed), the pEC50 is 7.08. The “E max [Δ%]” value under setting [1] is 95±2 Δ%.
